In patent US20250263459A1, “STABILIZED PACAP PEPTIDE” (SENJU PHARMACEUTICAL CO., LTD., priority 2019, published 2025):
Starred links: 1 amine or outer side, 2 acyl side, 3 side chain; linkers in the order of their positions; H or OH if unused. Non-standard residues stand in square brackets, D forms with d. Residues, ends and D or L forms follow the SMILES beside them. No end group written: not given here. *: point of attachment. Ala(1H-tetrazol-5-yl) = N[C@@H](Cc1nnn[nH]1)C(=O)O; X2 = O=C([C@H](Cc1noc(=O)[nH]1)N[*:1])[*:2]; Tz = tetrazole-substituted aspartic acid; X1 = O=C([C@@H](Cc1nnn[nH]1)N[*:1])[*:2]; X3 = O=C([C@H](CCc1nnn[nH]1)N[*:1])[*:2]; Isovaleryl = CC(C)CC(=O)*; Nle = CCCC[C@H](N)C(=O)O; Propionyl = CCC(=O)*

T1: VPAC1 receptor (UniProt P32241 31-457, limits assumed)
T1 sequence (looked up): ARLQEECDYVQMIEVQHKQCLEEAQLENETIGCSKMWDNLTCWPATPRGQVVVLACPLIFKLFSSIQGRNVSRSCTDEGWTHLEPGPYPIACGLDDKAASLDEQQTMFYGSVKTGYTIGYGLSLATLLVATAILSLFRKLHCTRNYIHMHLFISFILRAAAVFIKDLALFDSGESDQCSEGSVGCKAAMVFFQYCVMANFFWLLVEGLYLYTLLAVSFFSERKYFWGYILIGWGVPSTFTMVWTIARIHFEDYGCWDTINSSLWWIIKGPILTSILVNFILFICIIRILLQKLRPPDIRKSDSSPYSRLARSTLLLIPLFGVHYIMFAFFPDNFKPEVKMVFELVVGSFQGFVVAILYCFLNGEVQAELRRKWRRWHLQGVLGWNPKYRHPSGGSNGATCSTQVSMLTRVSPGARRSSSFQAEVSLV

T2: PAC1 receptor (UniProt P41586 21-468, limits assumed)
T2 sequence (looked up): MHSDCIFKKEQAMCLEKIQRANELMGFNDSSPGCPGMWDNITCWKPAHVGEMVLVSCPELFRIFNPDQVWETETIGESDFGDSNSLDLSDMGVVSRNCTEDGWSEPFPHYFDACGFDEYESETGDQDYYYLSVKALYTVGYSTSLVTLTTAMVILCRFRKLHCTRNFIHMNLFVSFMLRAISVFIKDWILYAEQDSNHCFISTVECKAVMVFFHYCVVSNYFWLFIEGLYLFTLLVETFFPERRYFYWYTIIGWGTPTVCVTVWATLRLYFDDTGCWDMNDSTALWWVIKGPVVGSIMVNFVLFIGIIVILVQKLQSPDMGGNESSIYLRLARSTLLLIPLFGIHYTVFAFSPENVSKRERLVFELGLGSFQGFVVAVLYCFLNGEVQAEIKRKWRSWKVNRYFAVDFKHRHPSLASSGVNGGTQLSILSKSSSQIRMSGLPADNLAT


Experiments:
[1] = Stability test 1: survival rate of peptide in phosphate buffer (pH 7.0) after storage, HPLC; assay type: physicochemical; settings: 100 μM peptide, phosphate buffer pH 7.0, 40° C.; for survival rate after correction for water, 40° C. 2 week: 2 weeks (Table 6); for survival rate after correction for water, 40° C. 8 week: 8 weeks (Table 6)
Protocol: The 1.0 mM peptide solutions were then diluted with phosphate buffer to 100 μM. […] The prepared peptide solutions were incubated for one month or 2 months in a 40° C. thermostatic bath to obtain stored samples.
Using the total weight of the aqueous peptide solution and storage vessel as the specimen weight, measurements were recorded as the specimen weights before storage and the specimen weights after storage under different storage conditions. The empty weight of the storage vessel was also measured, and the moisture permeability was determined by the following formula.
After stirring the standard sample and the stored samples with a vortex mixer, each peptide solution was transferred to an HPLC vial (Deactivated Qsert vial by Waters Co.). Reverse-phase HPLC (HPLC system: Prominence by Shimadzu Corp.) was conducted under the conditions shown in Table 3 below for analysis of the peptide solutions, and chromatograms were obtained.
The peak area value for the peptide in the chromatogram was calculated, and the survival rate (survival rate before correction for water) was calculated using formula (2). The survival rate after correction for water was also calculated from the survival rate before correction for water using formula (3) to take into account the permeability of the container.
Peptide solutions prepared by the same method as [Measuring sample preparation 1] for the peptides synthesized in Example 2 (peptides 13 to 16) were incubated for 2 weeks and 8 weeks in a thermostatic bath at 40° C. to obtain stored samples.
Peptide solutions prepared by the same method as [Measuring sample preparation 1] for the peptides synthesized in Example 2 (peptides 17 to 21) were incubated for 4 weeks in a thermostatic bath at 40° C. to obtain stored samples.
A peptide solution prepared by the same method as [Measuring sample preparation 1] for peptide 22 synthesized in Example 2 was incubated for 1 week and 4 weeks in a thermostatic bath at 40° C. to obtain stored samples.

[2] = target: T1, VPAC1 receptor; assay: cell-based or functional assay
[3] = target: T2, PAC1 receptor; assay: cell-based or functional assay

Molecule | survival rate after correction for water, 40° C. 2 week [1] [%] | survival rate after correction for water, 40° C. 8 week [1] [%] | other results
CCCC[C@H](NC(=O)[C@H](CCC(N)=O)NC(=O)[C@H](CCCCN)NC(=O)[C@H](CCCNC(=N)N)NC(=O)[C@H](Cc1ccc(O)cc1)NC(=O)[C@H](CCCNC(=N)N)NC(=O)[C@H](CO)NC(=O)[C@H](Cc1ccc(O)cc1)NC(=O)[C@H](CO)NC(=O)[C@H](Cc1nnn[nH]1)NC(=O)[C@@H](NC(=O)[C@H](Cc1ccccc1)NC(=O)[C@@H](NC(=O)CNC(=O)[C@H](Cc1nnn[nH]1)NC(=O)[C@H](CO)NC(=O)[C@H](Cc1c[nH]cn1)NC(=O)CC(C)C)[C@@H](C)CC)[C@@H](C)O)C(=O)N[C@@H](C)C(=O)N[C@H](C(=O)N[C@@H](CCCCN)C(=O)N[C@@H](CCCCN)C(=O)N[C@@H](Cc1ccc(O)cc1)C(=O)N[C@@H](CC(C)C)C(=O)N[C@@H](C)C(=O)N[C@@H](C)C(=O)N[C@H](C(=O)N[C@@H](CC(C)C)C(N)=O)C(C)C)C(C)C [Peptide 21] (Isovaleryl-HS[Ala(1H-tetrazol-5-yl)]GIFT[Ala(1H-tetrazol-5-yl)]SYSRYRKQ[Nle]AVKKYLAAVL-NH2) |  |  | survival rate after correction for water, 40° C. 4 week ([1]; 4 weeks (Table 8)): 69.0%
CCCC[C@H](NC(=O)[C@H](CCC(N)=O)NC(=O)[C@H](CCCCN)NC(=O)[C@H](CCCNC(=N)N)NC(=O)[C@H](Cc1ccc(O)cc1)NC(=O)[C@H](CCCNC(=N)N)NC(=O)[C@H](CO)NC(=O)[C@H](Cc1ccc(O)cc1)NC(=O)[C@H](CO)NC(=O)[C@@H](Cc1nnn[nH]1)NC(=O)[C@@H](NC(=O)[C@H](Cc1ccccc1)NC(=O)[C@@H](NC(=O)CNC(=O)[C@@H](Cc1nnn[nH]1)NC(=O)[C@H](CO)NC(=O)[C@@H](N)Cc1c[nH]cn1)[C@@H](C)CC)[C@@H](C)O)C(=O)N[C@@H](C)C(=O)N[C@H](C(=O)N[C@@H](CCCCN)C(=O)N[C@@H](CCCCN)C(=O)N[C@@H](Cc1ccc(O)cc1)C(=O)N[C@@H](CC(C)C)C(=O)N[C@@H](C)C(=O)N[C@@H](C)C(=O)N[C@H](C(=O)N[C@@H](CC(C)C)C(N)=O)C(C)C)C(C)C [Peptide 13, HSTz(D)GI FTTz(D)SY SRYRK QNIAVK KYLAA VL] (H-HS[X1]GIFT[X1]SYSRYRKQ[Nle]AVKKYLAAVL-NH2) | 96.2 | 84.6 | 
CCCC[C@H](NC(=O)[C@H](CCC(N)=O)NC(=O)[C@H](CCCCN)NC(=O)[C@H](CCCNC(=N)N)NC(=O)[C@H](Cc1ccc(O)cc1)NC(=O)[C@H](CCCNC(=N)N)NC(=O)[C@H](CO)NC(=O)[C@H](Cc1ccc(O)cc1)NC(=O)[C@H](CO)NC(=O)[C@H](Cc1noc(=O)[nH]1)NC(=O)[C@@H](NC(=O)[C@H](Cc1ccccc1)NC(=O)[C@@H](NC(=O)CNC(=O)[C@H](Cc1noc(=O)[nH]1)NC(=O)[C@H](CO)NC(=O)[C@H](Cc1c[nH]cn1)NC(C)=O)[C@@H](C)CC)[C@@H](C)O)C(=O)N[C@@H](C)C(=O)N[C@H](C(=O)N[C@@H](CCCCN)C(=O)N[C@@H](CCCCN)C(=O)N[C@@H](Cc1ccc(O)cc1)C(=O)N[C@@H](CC(C)C)C(=O)N[C@@H](C)C(=O)N[C@@H](C)C(=O)N[C@H](C(=O)N[C@@H](CC(C)C)C(N)=O)C(C)C)C(C)C [Peptide 22, HS(50xa)GI FT(50xa)SY SRYRK QNIAVK KYLAA VL] (Ac-HS[X2]GIFT[X2]SYSRYRKQ[Nle]AVKKYLAAVL-NH2) |  |  | survival rate after correction for water, 40° C. 1 week ([1]; 1 week (Table 10)): 89.7%; survival rate after correction for water, 40° C. 4 week ([1]; 4 weeks (Table 10)): 79.7%
CCCC[C@H](NC(=O)[C@H](CCC(N)=O)NC(=O)[C@H](CCCCN)NC(=O)[C@H](CCCNC(=N)N)NC(=O)[C@H](Cc1ccc(O)cc1)NC(=O)[C@H](CCCNC(=N)N)NC(=O)[C@H](CO)NC(=O)[C@H](Cc1ccc(O)cc1)NC(=O)[C@H](CO)NC(=O)[C@@H](Cc1nnn[nH]1)NC(=O)[C@@H](NC(=O)[C@H](Cc1ccccc1)NC(=O)[C@@H](NC(=O)CNC(=O)[C@H](Cc1nnn[nH]1)NC(=O)[C@H](CO)NC(=O)[C@@H](N)Cc1c[nH]cn1)[C@@H](C)CC)[C@@H](C)O)C(=O)N[C@@H](C)C(=O)N[C@H](C(=O)N[C@@H](CCCCN)C(=O)N[C@@H](CCCCN)C(=O)N[C@@H](Cc1ccc(O)cc1)C(=O)N[C@@H](CC(C)C)C(=O)N[C@@H](C)C(=O)N[C@@H](C)C(=O)N[C@H](C(=O)N[C@@H](CC(C)C)C(N)=O)C(C)C)C(C)C [Peptide 14, HSTzGI FTTz(D)SY SRYRK QNIAVK KYLAA VL] (H-HS[Ala(1H-tetrazol-5-yl)]GIFT[X1]SYSRYRKQ[Nle]AVKKYLAAVL-NH2) | 96.3 | 84.5 | 
CCCC[C@H](NC(=O)[C@H](CCC(N)=O)NC(=O)[C@H](CCCCN)NC(=O)[C@H](CCCNC(=N)N)NC(=O)[C@H](Cc1ccc(O)cc1)NC(=O)[C@H](CCCNC(=N)N)NC(=O)[C@H](CO)NC(=O)[C@H](Cc1ccc(O)cc1)NC(=O)[C@H](CO)NC(=O)[C@H](CCc1nnn[nH]1)NC(=O)[C@@H](NC(=O)[C@H](Cc1ccccc1)NC(=O)[C@@H](NC(=O)CNC(=O)[C@H](Cc1nnn[nH]1)NC(=O)[C@H](CO)NC(=O)[C@@H](N)Cc1c[nH]cn1)[C@@H](C)CC)[C@@H](C)O)C(=O)N[C@@H](C)C(=O)N[C@H](C(=O)N[C@@H](CCCCN)C(=O)N[C@@H](CCCCN)C(=O)N[C@@H](Cc1ccc(O)cc1)C(=O)N[C@@H](CC(C)C)C(=O)N[C@@H](C)C(=O)N[C@@H](C)C(=O)N[C@H](C(=O)N[C@@H](CC(C)C)C(N)=O)C(C)C)C(C)C [Peptide 16, HSTzGI FTegTzSY SRYRK QNIAVK KYLAA VL] (H-HS[Ala(1H-tetrazol-5-yl)]GIFT[X3]SYSRYRKQ[Nle]AVKKYLAAVL-NH2) | 94.4 | 80.3 | 
CCCC[C@H](NC(=O)[C@H](CCC(N)=O)NC(=O)[C@H](CCCCN)NC(=O)[C@H](CCCNC(=N)N)NC(=O)[C@H](Cc1ccc(O)cc1)NC(=O)[C@H](CCCNC(=N)N)NC(=O)[C@H](CO)NC(=O)[C@H](Cc1ccc(O)cc1)NC(=O)[C@H](CO)NC(=O)[C@H](Cc1nnn[nH]1)NC(=O)[C@@H](NC(=O)[C@H](Cc1ccccc1)NC(=O)[C@@H](NC(=O)CNC(=O)[C@H](Cc1nnn[nH]1)NC(=O)[C@H](CO)NC(=O)[C@H](Cc1c[nH]cn1)NC(=O)CC)[C@@H](C)CC)[C@@H](C)O)C(=O)N[C@@H](C)C(=O)N[C@H](C(=O)N[C@@H](CCCCN)C(=O)N[C@@H](CCCCN)C(=O)N[C@@H](Cc1ccc(O)cc1)C(=O)N[C@@H](CC(C)C)C(=O)N[C@@H](C)C(=O)N[C@@H](C)C(=O)N[C@H](C(=O)N[C@@H](CC(C)C)C(N)=O)C(C)C)C(C)C [Peptide 17, HSTzGI FTTzSY SRYRK QNIAVK KYLAA VL] (Propionyl-HS[Ala(1H-tetrazol-5-yl)]GIFT[Ala(1H-tetrazol-5-yl)]SYSRYRKQ[Nle]AVKKYLAAVL-NH2) |  |  | survival rate after correction for water, 40° C. 4 week ([1]; 4 weeks (Table 8)): 59.2%
HS[Tz]GIFA[Tz]AYARYRKQMAVKKYLAAVL-NH2 (also: Tz racemic) [Peptide 3] |  |  | EC50, cAMP assay (Hit Hunter cAMP, chemiluminescence RLU) [2]: 0.111 nM; EC50, cAMP assay (Hit Hunter cAMP, chemiluminescence RLU) [3]: 0.689 nM
